In article PMC4532424, “The Novel Cyclophilin Inhibitor CPI-431-32 Concurrently Blocks HCV and HIV-1 Infections via a Similar Mechanism of Action” (PLoS ONE, 2015):
Read-outs that look alike come from different tables or passages of the source.

Assays:
HIV-1 JR-CSF [1] = assay: HIV-1/HCV co-culture co-infection, HIV-1 p24 ELISA; format: cell-based
Procedure: (§1) CD4+ T-lymphocytes and Huh7.5.1 cells uninfected or infected for 3 h as described above were mixed in a single flask and HIV-1 and HCV replication monitored over a period of 3 weeks as described above.
(§2) HIV-1 target cells—CD4+ T-lymphocytes—and HCV target cells—hepatoma cells—were placed in a single chamber (flask), exposed to both HIV-1 and HCV, and viral replication monitored over time by p24 capsid and core ELISAs, respectively.
(§3) CD4+ T-lymphocytes (A) and Huh7.5.1 cells (B) (0.5 x 10^6 cells) (triplicates) were exposed to HIV-1 JR-CSF and HCV JFH-1. Drugs (2 μM) were added 3 h pre-viral exposure (top panels) or 3 days post-viral exposure (bottom panels). Viral replications were monitored by HIV-1 p24 and HCV core ELISAs. C. CD4+ T-lymphocytes (0.5 x 10^6 cells) (triplicates) were exposed to HIV-1 JR-CSF. Drugs were initially added 3 days post-viral exposure (2 μM) and then daily (0.5 μM). Viral replications were monitored by HIV-1 p24 and HCV core ELISAs. […] D. Model for the HIV-1/HCV co-culture system.

HCV JFH-1 [2] = assay: HIV-1/HCV co-culture co-infection, HCV core ELISA; format: cell-based
Procedure: as §1, §2, §3

HCV JFH-1 [3] = assay: HCV mono-infection of Huh7.5.1 cells, core ELISA; format: cell-based; conditions: Fig 1B
HIV-1 JR-CSF [4] = assay: HIV-1 mono-infection of CD4+ T-lymphocytes, p24 ELISA; format: cell-based; conditions: Fig 1A
Text: Hemoglobin determinations at every donation protect the donor from phlebotomy-induced anemia. The donor pool also provides investigators with a mix of gender and minority subjects, and recruitment is ongoing for underrepresented minorities. At the present time, the NBDS has 320 active normal blood donors enrolled. Use of the Normal Blood Donor Service is considered “human subjects” research and each investigator who wants to use the service must submit a protocol to the IRB for review and approval. Dr. Gallay has current IRB approval for the human blood obtained for research described in this manuscript. Protocol No: IRB-15-6552. Full name of the IRB is "Scripps IRB". […] Consent from blood donors was obtained verbally. The authors have no access to identifying donor information for these samples.

human T cells = conditions: cited from earlier work
[5] = drug treatments begun 3 h before virus addition
[6] = single dose added 3 days post-infection

| SMILES | Effect on HIV-1 replication (in words) (HIV-1 JR-CSF [1]; [5]) | Effect on HCV replication (in words) (HCV JFH-1 [2]; [5]) | Effect on HCV replication (in words) (HCV JFH-1 [2]; [6]) | Effect on HCV replication (in words) (HCV JFH-1 [3]) | Effect on HIV-1 replication (in words) (HIV-1 JR-CSF [4]) | Cellular toxicity (in words) (human T cells; general statement on other CypI, no reference given) | Effect on HIV-1 replication (in words) (HIV-1 JR-CSF [1]; [6]) | Cellular toxicity (in words) (human T cells) |
| --- | --- | --- | --- | --- | --- | --- | --- | --- |
| COC(=O)N[C@H](C(=O)N1CCC[C@H]1c1nc(-c2ccc(-c3ccc(-c4c[nH]c([C@@H]5CCCN5C(=O)[C@@H](NC(=O)OC)C(C)C)n4)cc3)cc2)c[nH]1)C(C)C [Daclatasvir, daclatasvir] | did not | completely prevented | completely eradicated | fully blocked HCV replication | had no effect | – | – | – |
| C/C=C/C[C@@H](C)[C@@H](O)[C@H]1C(=O)N[C@@H](CC)C(=O)N(C)CC(=O)N(C)[C@@H]([C@@H](C)CC)C(=O)N[C@@H](C(C)C)C(=O)N(C)[C@@H](CC(C)C)C(=O)N[C@@H](C)C(=O)N[C@H](C)C(=O)N(C)[C@@H](CC(C)C)C(=O)N(C)[C@@H](CC(C)C)C(=O)N(C)[C@@H](C(C)C)C(=O)N1C [NIM811] | – | – | – | – | – | lack of cellular toxicity | – | – |
| Cc1c(O)cccc1C(=O)N[C@@H](CSc1ccccc1)[C@H](O)CN1C[C@H]2CCCC[C@H]2C[C@H]1C(=O)NC(C)(C)C [Nelfinavir, nelfinavir] | totally prevented HIV-1 replication | did not | – | had no effect | totally blocked replication | – | completely eradicated | – |
| C/C=C/C[C@@H](C)[C@@H](O)[C@H]1C(=O)N[C@@H](CC)C(=O)N(C)[C@H](SCCN(C)C)C(=O)N(C)[C@@H](CC(C)(C)O)C(=O)N[C@@H](C(C)C)C(=O)N(C)[C@@H](CC(C)C)C(=O)N[C@@H](C)C(=O)N[C@H](C)C(=O)N(C)[C@@H](CC(C)C)C(=O)N(C)[C@@H](CC(C)C)C(=O)N(C)[C@@H](C(C)C)C(=O)N1C [SCY-635] | – | – | – | – | – | – | – | lack of cellular toxicity |
